Data on three compounds can be found in ChEMBL document CHEMBL1255183, “Role of the phenolic hydroxyl group in the biological activities of simplified analogue of aplysiatoxin with antiproliferative activity” (Bioorg Med Chem Lett, 2010).

A short description of data set [1]: Cytotoxicity against human Raji cells assessed as viability at 1 uM in presence of TPA. It is filed as cell-based. To be noted: read-out: Activity.
Data set [2] has as its system Raji. In words: Inhibition of TPA-induced EBA-early antigen production in human Raji cells at 10^-7 M. It is filed as cell-based. Details: scale not given: the % may be the effect or the level left. To be noted: human gammaherpesvirus 4.
Data set [3] has as its system Raji. In words: Induction of EBA-early antigen production in human Raji cells at 10^-7 M. To be noted: human gammaherpesvirus 4. It is filed as cell-based.
For data set [4], the system named is SF-295. In words: Cytotoxicity against human SF295 cells. It counts as functional.
Data set [5] has as its system NCI-H460. In words: Cytotoxicity against human NCI-H460 cells. It counts as functional.
For data set [6], the system named is MDA-MB-231. In words: Cytotoxicity against human MDA-MB-231 cells. It counts as functional.
The test system of data set [7] is Raji. In words: Inhibition of TPA-induced EBA-early antigen production in human Raji cells at 1 uM. To be noted: human gammaherpesvirus 4. Also noted: scale not given: the % may be the effect or the level left. It is filed as cell-based.
Data set [8] in a line: Cytotoxicity against human Raji cells assessed as viability at 10^-7 M in presence of TPA. It counts as cell-based. To be noted: read-out: Activity.
For data set [9], the system named is PC-3. In words: Cytotoxicity against human PC3 cells. It is filed as functional.
A short description of data set [10]: Cytotoxicity against human Raji cells assessed as viability at 10^-7 M. It counts as cell-based. To be noted: read-out: Activity.
Data set [11] deals with Raji. In words: Induction of EBA-early antigen production in human Raji cells at 1 uM. It counts as cell-based. To be noted: human gammaherpesvirus 4.
A short description of data set [12]: Cytotoxicity against human Raji cells assessed as viability at 1 uM. It counts as cell-based. To be noted: read-out: Activity.
Data set [13] concerns A549. In words: Cytotoxicity against human A549 cells. It counts as functional.
For data set [14], the system named is HCC 2998. In words: Cytotoxicity against human HCC2998 cells. It is filed as functional.
Data set [15] concerns the target T1, Protein kinase C delta type (Homo sapiens, UniProt Q05655). In words: Inhibition of [3H]PDBu binding to PKC delta C1A peptide.
For data set [16], the target named is T2, Protein kinase C epsilon type (Homo sapiens, UniProt Q02156).
T2 sequence (Q02156 whole entry): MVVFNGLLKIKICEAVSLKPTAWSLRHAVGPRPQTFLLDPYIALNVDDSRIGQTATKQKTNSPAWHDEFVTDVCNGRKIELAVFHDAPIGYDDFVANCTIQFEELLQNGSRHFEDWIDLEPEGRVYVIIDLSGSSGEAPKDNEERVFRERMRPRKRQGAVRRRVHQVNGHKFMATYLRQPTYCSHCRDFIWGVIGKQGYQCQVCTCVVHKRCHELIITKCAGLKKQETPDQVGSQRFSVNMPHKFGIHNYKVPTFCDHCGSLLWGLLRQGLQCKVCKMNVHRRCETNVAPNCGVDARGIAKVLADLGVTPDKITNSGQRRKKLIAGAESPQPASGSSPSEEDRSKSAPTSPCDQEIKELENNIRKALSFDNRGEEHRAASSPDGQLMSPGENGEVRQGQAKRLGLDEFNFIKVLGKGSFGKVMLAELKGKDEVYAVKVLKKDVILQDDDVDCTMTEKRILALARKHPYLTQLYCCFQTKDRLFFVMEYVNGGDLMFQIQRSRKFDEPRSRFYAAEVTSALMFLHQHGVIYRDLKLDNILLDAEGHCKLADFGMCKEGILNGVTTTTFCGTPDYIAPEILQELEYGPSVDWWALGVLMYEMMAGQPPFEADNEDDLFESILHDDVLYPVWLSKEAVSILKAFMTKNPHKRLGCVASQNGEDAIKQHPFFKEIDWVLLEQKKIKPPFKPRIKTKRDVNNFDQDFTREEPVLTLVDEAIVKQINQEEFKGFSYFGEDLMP
In words: Inhibition of [3H]PDBu binding to PKCepsilon C1B peptide.

Data set [17] addresses Protein kinase C gamma type (Homo sapiens, UniProt P05129). In words: Inhibition of [3H]PDBu binding to PKC gamma C1A peptide.
Data set [18] concerns the target Protein kinase C eta type (Homo sapiens, UniProt P24723). In words: Inhibition of [3H]PDBu binding to PKCeta C1B peptide.
Data set [19] deals with Protein kinase C beta type (Homo sapiens, UniProt P05771). In words: Inhibition of [3H]PDBu binding to PKC beta C1A peptide.
Chain of Protein kinase C beta type (P05771 whole entry): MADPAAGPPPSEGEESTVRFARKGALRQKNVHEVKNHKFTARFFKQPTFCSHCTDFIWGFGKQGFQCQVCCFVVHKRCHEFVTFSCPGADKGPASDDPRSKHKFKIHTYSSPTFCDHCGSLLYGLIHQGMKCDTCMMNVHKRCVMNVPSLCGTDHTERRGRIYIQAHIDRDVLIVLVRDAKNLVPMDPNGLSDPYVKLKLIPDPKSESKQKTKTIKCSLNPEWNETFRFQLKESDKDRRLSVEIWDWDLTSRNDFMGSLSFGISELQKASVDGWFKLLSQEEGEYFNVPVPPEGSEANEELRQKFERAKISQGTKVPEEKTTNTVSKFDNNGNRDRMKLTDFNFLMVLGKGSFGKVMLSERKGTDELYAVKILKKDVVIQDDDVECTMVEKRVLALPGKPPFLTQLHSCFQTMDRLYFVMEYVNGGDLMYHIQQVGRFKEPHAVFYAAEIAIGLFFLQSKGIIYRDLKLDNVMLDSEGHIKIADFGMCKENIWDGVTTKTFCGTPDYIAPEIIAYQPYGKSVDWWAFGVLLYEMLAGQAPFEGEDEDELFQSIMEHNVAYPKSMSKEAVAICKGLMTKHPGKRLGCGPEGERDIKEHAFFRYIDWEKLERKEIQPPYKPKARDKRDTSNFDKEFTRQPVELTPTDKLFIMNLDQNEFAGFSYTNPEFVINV
For data set [20], the target named is T1, Protein kinase C delta type. In words: Inhibition of [3H]PDBu binding to PKC delta C1B peptide.
The target of data set [21] is Protein kinase C alpha type (Homo sapiens, UniProt P17252). In words: Inhibition of [3H]PDBu binding to PKC alpha C1A peptide.
Data set [22] addresses Protein kinase C theta type (Homo sapiens, UniProt Q04759). In words: Inhibition of [3H]PDBu binding to PKCtheta C1B peptide.

T1 sequence (Q05655 whole entry): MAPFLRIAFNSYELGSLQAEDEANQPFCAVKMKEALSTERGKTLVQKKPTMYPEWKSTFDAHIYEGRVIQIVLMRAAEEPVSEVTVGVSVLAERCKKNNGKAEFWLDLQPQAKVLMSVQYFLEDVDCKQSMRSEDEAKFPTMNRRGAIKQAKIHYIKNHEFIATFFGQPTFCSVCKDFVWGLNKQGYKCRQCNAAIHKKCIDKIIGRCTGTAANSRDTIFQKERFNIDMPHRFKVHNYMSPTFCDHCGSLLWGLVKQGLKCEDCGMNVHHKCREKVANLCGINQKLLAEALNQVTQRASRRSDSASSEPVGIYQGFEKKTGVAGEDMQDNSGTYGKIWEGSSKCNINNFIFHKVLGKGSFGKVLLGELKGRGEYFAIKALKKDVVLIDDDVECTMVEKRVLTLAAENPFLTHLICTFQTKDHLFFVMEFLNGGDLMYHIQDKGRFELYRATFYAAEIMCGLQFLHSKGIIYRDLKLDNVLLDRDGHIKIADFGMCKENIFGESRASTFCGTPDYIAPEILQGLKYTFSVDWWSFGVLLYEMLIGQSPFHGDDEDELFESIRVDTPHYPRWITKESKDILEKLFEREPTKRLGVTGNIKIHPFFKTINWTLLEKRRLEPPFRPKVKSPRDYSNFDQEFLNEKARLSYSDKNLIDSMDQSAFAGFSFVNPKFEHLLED
Chain of Protein kinase C theta type (Q04759 whole entry): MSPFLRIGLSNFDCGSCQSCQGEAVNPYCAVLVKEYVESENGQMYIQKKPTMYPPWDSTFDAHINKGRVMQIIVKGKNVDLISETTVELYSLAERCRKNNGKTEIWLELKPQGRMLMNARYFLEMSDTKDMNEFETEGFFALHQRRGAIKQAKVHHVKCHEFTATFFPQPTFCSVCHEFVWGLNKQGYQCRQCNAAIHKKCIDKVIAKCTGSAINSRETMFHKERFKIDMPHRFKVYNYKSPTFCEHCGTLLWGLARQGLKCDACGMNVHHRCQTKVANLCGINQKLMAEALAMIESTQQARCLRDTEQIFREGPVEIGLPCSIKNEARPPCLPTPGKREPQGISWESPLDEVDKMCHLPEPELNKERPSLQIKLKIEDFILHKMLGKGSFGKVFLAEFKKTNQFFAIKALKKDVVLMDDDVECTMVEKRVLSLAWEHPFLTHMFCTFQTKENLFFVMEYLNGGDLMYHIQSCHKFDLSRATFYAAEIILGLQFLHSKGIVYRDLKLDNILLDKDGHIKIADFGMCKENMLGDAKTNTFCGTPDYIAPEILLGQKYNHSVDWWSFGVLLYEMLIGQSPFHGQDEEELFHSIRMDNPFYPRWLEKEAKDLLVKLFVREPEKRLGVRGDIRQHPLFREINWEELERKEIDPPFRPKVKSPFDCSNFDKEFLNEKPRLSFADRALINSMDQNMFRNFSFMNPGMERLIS
Chain of Protein kinase C eta type (P24723 whole entry): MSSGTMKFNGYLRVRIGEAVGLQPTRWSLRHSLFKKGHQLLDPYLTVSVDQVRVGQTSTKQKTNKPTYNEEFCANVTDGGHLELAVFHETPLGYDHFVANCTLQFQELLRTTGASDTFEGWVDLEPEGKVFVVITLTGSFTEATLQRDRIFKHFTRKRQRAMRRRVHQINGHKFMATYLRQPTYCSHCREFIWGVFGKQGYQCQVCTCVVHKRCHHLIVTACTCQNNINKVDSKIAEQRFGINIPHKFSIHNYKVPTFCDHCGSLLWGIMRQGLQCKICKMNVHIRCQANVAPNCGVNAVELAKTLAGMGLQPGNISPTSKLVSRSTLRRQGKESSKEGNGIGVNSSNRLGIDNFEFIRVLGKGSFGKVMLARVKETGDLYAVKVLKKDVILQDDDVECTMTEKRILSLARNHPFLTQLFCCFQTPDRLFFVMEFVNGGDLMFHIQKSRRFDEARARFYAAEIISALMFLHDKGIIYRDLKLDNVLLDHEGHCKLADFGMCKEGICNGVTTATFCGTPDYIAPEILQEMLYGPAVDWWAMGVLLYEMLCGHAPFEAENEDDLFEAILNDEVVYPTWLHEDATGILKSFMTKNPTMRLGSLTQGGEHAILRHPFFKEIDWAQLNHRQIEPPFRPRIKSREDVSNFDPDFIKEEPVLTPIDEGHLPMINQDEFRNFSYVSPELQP

Consider `CCC/C=C/C=C/C(=O)O[C@H]1/C(=C/C(=O)OC)C[C@H]2C[C@H]([C@@H](C)O)OC(=O)C[C@H](O)C[C@@H]3C[C@H](OC(C)=O)C(C)(C)[C@](O)(C[C@@H]4C/C(=C/C(=O)OC)C[C@H](/C=C/C(C)(C)[C@]1(O)O2)O4)O3` [BRYOSTATIN 1], for which the viability at 1 µM in data set [1] and in data set [12] was 40% in each case. The Activity turned out to be 6.8% in data set [2], 1.4% in data set [3], 5% in data set [7] and 2% in data set [11]. The GI50 in data set [4] was 6.31 µM; in data set [5] it was 2.51 µM; in [6], 6.31 µM; in data set [9], 5.01 µM; in [13] it was 6.31 µM; in data set [14], 5.01 µM. Further, the viability at 0.1 µM in data set [8] and in data set [10] was 60% throughout.
With `CCCCCCCCCCCCCC(=O)O[C@@H]1[C@@H](C)[C@@]2(O)[C@@H](C=C(CO)C[C@]3(O)C(=O)C(C)=C[C@@H]23)[C@@H]2C(C)(C)[C@]12OC(C)=O` [PHORBOL MYRISTATE ACETATE], the Activity in [3] was 28.8%; in data set [11], 30.2%. Besides, in data set [10], the viability at 0.1 µM was found to be 60%. For the same compound, in data set [12], the viability at 1 µM came out at 50%.
Regarding `O=C1C[C@H](CO)OC(=O)C[C@H]2CCC[C@]3(C[C@@H](C[C@@H](CCCCc4ccccc4)O3)O1)O2`, the Ki in [15] worked out at 6.8 µM; in [16] it was 0.82 µM; in data set [17], 1.6 µM; in [18], 0.18 µM; in [19], 3.5 µM; in [20], 0.17 µM. The Ki was 2.4 µM in data set [21] and 0.17 µM in [22].
